Reference: US9822114B2, “Tricyclic oxazolidinone antibiotic compounds” (Idorsia Pharmaceuticals Ltd, priority 2008, dated 2017)

tested on: M. catarrhalis A894; test: Minimal inhibitory concentration (MIC), microdilution method in cation-adjusted Mueller-Hinton Broth (CLSI M7-A7); format: cell-based; conditions: Moraxella catarrhalis, strain A894
Method: Minimal inhibitory concentrations (MICs; mg/1) were determined in cation-adjusted Mueller-Hinton Broth by a microdilution method following the description given in “Methods for Dilution Antimicrobial Susceptibility Tests for Bacteria that Grow Aerobically”, Approved standard, 7th ed., Clinical and Laboratory Standards Institute (CLSI) Document M7-A7, Wayne, Pa., USA, 2006.

Q: `O=C1CSc2ccc(N3C[C@H](CNCC4Cn5c(=O)ccc6ncc(F)c4c65)OC3=O)cc2N1` (mixture of isomers) [Example 101, (RS)-3-fluoro-4-({[(S)-2-oxo-3-(3-oxo-3,4-dihydro-2H-benzo[1,4]thiazin-6-yl)-oxazolidin-5-ylmethyl]-amino}-methyl)-4,5-dihydro-pyrrolo[3,2,1-de][1,5]naphthyridin-7-one] was tested. Which MIC did it give?
A: ≤ 0.031 µg/mL

Q: `O=C1COc2ccc(N3C[C@H](CCNCC4Cn5c(=O)ccc6ncc(F)c4c65)OC3=O)cc2N1` (mixture of isomers) [Example 102, (RS)-3-fluoro-4-({2-[(S)-2-oxo-3-(3-oxo-3,4-dihydro-2H-benzo[1,4]oxazin-6-yl)-oxazolidin-5-yl]-ethylamino}-methyl)-4,5-dihydro-pyrrolo[3,2,1-de][1,5]naphthyridin-7-one] was tested. Which MIC did it give?
A: ≤ 0.031 µg/mL

Q: Which MIC does the source give for `O=C1COc2ccc(N3C[C@@H](CCNCC4Cn5c(=O)ccc6ncc(F)c4c65)OC3=O)cc2N1` (mixture of isomers) [Example 103, (RS)-3-fluoro-4-({2-[(R)-2-oxo-3-(3-oxo-3,4-dihydro-2H-benzo[1,4]oxazin-6-yl)-oxazolidin-5-yl]-ethylamino}-methyl)-4,5-dihydro-pyrrolo[3,2,1-de][1,5]naphthyridin-7-one] here?
A: ≤ 0.031 µg/mL

Q: Which MIC does the source give for `O=C1CSc2ccc(N3C[C@H](CNCC4Cn5c(=O)cnc6cccc4c65)OC3=O)cc2N1` (mixture of isomers) [Example 106, (RS)-6-({[(S)-2-oxo-3-(3-oxo-3,4-dihydro-2H-benzo[1,4]thiazin-6-yl)-oxazolidin-5-ylmethyl]-amino}-methyl)-5,6-dihydro-pyrrolo[1,2,3-de]quinoxalin-3-one] here?
A: ≤ 0.031 µg/mL

Q: Which MIC does the source give for `O=C1O[C@@H](CCNC2Cn3c(=O)ccc4ccc(F)c2c43)CN1c1ccc2c(c1)OCCO2` (mixture of isomers) [Example 107, (RS)-1-{2-[(S)-3-(2,3-dihydro-benzo[1,4]dioxin-6-yl)-2-oxo-oxazolidin-5-yl]-ethylamino}-9-fluoro-1,2-dihydro-pyrrolo[3,2,1-ij]quinolin-4-one] here?
A: 8 µg/mL

Q: With `O=C1CSc2ccc(N3C[C@H]([C@H](O)CC(=O)N[C@@H]4Cn5c(=O)ccc6ccc(F)c4c65)OC3=O)cc2N1` (mixture of isomers) [Example 108, (RS)—N—((S)-9-fluoro-4-oxo-1,2-dihydro-4H-pyrrolo[3,2,1-ij]quinolin-1-yl)-3-hydroxy-3-[(RS)-2-oxo-3-(3-oxo-3,4-dihydro-2H-benzo[1,4]thiazin-6-yl)-oxazolidin-5-yl]-propionamide] as the compound, how does the MIC read?
A: ≤ 0.031 µg/mL

Q: `O=C1CSc2ccc(N3C[C@@H](CNCC4Cn5c(=O)cnc6cccc4c65)OC3=O)cc2N1` (mixture of isomers) [Example 110, (RS)-6-({[(R)-2-oxo-3-(3-oxo-3,4-dihydro-2H-benzo[1,4]thiazin-6-yl)-oxazolidin-5-ylmethyl]-amino}-methyl)-5,6-dihydro-pyrrolo[1,2,3-de]quinoxalin-3-one] was tested. Which MIC did it give?
A: ≤ 0.031 µg/mL

Q: Which MIC does the source give for `O=C1CSc2ccc(N3C[C@@H](CCCNC4Cn5c(=O)cnc6cccc4c65)OC3=O)nc2N1` (mixture of isomers) [Example 115, (RS)-6-{3-[(R)-2-oxo-3-(3-oxo-3,4-dihydro-2H-pyrido[3,2-b][1,4]thiazin-6-yl)-oxazolidin-5-yl]-propylamino}-5,6-dihydro-pyrrolo[1,2,3-de]quinoxalin-3-one] here?
A: ≤ 0.031 µg/mL

Q: For `O=C1CSc2ccc(N3C[C@@H](CCCNC4Cn5c(=O)ccc6ccc(Br)c4c65)OC3=O)cc2N1` (mixture of isomers) [Example 116, (RS)-9-bromo-1-{3-[(R)-2-oxo-3-(3-oxo-3,4-dihydro-2H-benzo[1,4]thiazin-6-yl)-oxazolidin-5-yl]-propylamino}-1,2-dihydro-pyrrolo[3,2,1-ij]quinolin-4-one], which MIC is on record?
A: ≤ 0.031 µg/mL

Q: `N#Cc1ccc2ccc(=O)n3c2c1C(NCCC[C@@H]1CN(c2ccc4c(c2)NC(=O)CS4)C(=O)O1)C3` (mixture of isomers) [Example 117, (RS)-4-oxo-1-{3-[(R)-2-oxo-3-(3-oxo-3,4-dihydro-2H-benzo[1,4]thiazin-6-yl)-oxazolidin-5-yl]-propylamino}-1,2-dihydro-4H-pyrrolo[3,2,1-ij]quinoline-9-carbonitrile] was tested. Which MIC did it give?
A: ≤ 0.031 µg/mL

Q: How did the MIC turn out when `N#Cc1ccc2ccc(=O)n3c2c1C(NCCC[C@@H]1CN(c2ccc4c(n2)NC(=O)CS4)C(=O)O1)C3` (mixture of isomers) [Example 118, (RS)-4-oxo-1-{3-[(R)-2-oxo-3-(3-oxo-3,4-dihydro-2H-pyrido[3,2-b][1,4]thiazin-6-yl)-oxazolidin-5-yl]-propylamino}-1,2-dihydro-4H-pyrrolo[3,2,1-ij]quinoline-9-carbonitrile] was run?
A: ≤ 0.031 µg/mL

Q: For `O=C1COc2ccc(N3C[C@H](CCCNC4Cn5c(=O)ccc6ccc(F)c4c65)OC3=O)nc2N1` (mixture of isomers) [Example 124, (RS)-9-fluoro-1-{3-[(S)-2-oxo-3-(3-oxo-3,4-dihydro-2H-pyrido[3,2-b][1,4]oxazin-6-yl)-oxazolidin-5-yl]-propylamino}-1,2-dihydro-pyrrolo[3,2,1-ij]quinolin-4-one], which MIC is on record?
A: ≤ 0.031 µg/mL

Q: `O=C1CSc2ccc(N3C[C@@H](CCCNC4Cn5c(=O)ccc6ccc(F)c4c65)OC3=O)nc2N1` (mixture of isomers) [Example 125, (RS)-9-fluoro-1-{3-[(R)-2-oxo-3-(3-oxo-3,4-dihydro-2H-pyrido[3,2-b][1,4]thiazin-6-yl)-oxazolidin-5-yl]-propylamino}-1,2-dihydro-pyrrolo[3,2,1-ij]quinolin-4-one] was tested. Which MIC did it give?
A: ≤ 0.031 µg/mL

Q: `O=C1CSc2ccc(N3C[C@H](CCCNC4Cn5c(=O)ccc6ccc(F)c4c65)OC3=O)nc2N1` (mixture of isomers) [Example 126, (RS)-9-fluoro-1-{3-[(S)-2-oxo-3-(3-oxo-3,4-dihydro-2H-pyrido[3,2-b][1,4]thiazin-6-yl)-oxazolidin-5-yl]-propylamino}-1,2-dihydro-pyrrolo[3,2,1-ij]quinolin-4-one] was tested. Which MIC did it give?
A: ≤ 0.031 µg/mL

Q: How did the MIC turn out when `Cc1ccc2ccc(=O)n3c2c1C(NCCC[C@@H]1CN(c2ccc4c(c2)NC(=O)CS4)C(=O)O1)C3` (mixture of isomers) [Example 152, (RS)-9-methyl-1-{3-[(R)-2-oxo-3-(3-oxo-3,4-dihydro-2H-benzo[1,4]thiazin-6-yl)-oxazolidin-5-yl]-propylamino}-1,2-dihydro-pyrrolo[3,2,1-ij]quinolin-4-one] was run?
A: ≤ 0.031 µg/mL

Q: With `CN(CCC[C@@H]1CN(c2ccc3c(c2)NC(=O)CS3)C(=O)O1)C1Cn2c(=O)ccc3ccc(F)c1c32` (mixture of isomers) [Example 153, (RS)-9-fluoro-1-(methyl-{3-[(R)-2-oxo-3-(3-oxo-3,4-dihydro-2H-benzo[1,4]thiazin-6-yl)-oxazolidin-5-yl]-propyl}-amino)-1,2-dihydro-pyrrolo[3,2,1-ij]quinolin-4-one] as the compound, how does the MIC read?
A: ≤ 0.031 µg/mL

Q: `O=C1COc2ccc(N3C[C@H](CCNCC4Cn5c(=O)cnc6cccc4c65)OC3=O)cc2N1` (mixture of isomers) [Example 154, (RS)-6-({2-[(S)-2-oxo-3-(3-oxo-3,4-dihydro-2H-benzo[1,4]oxazin-6-yl)-oxazolidin-5-yl]-ethylamino}-methyl)-5,6-dihydro-pyrrolo[1,2,3-de]quinoxalin-3-one] was tested. Which MIC did it give?
A: ≤ 0.031 µg/mL

Q: `O=C1COc2ccc(N3C[C@@H](CCNCC4Cn5c(=O)cnc6cccc4c65)OC3=O)cc2N1` (mixture of isomers) [Example 155, (RS)-6-({2-[(R)-2-oxo-3-(3-oxo-3,4-dihydro-2H-benzo[1,4]oxazin-6-yl)-oxazolidin-5-yl]-ethylamino}-methyl)-5,6-dihydro-pyrrolo[1,2,3-de]quinoxalin-3-one] was tested. Which MIC did it give?
A: ≤ 0.031 µg/mL

Q: With `O=C1CSc2ccc(N3C[C@@H](CCNCC4Cn5c(=O)cnc6cccc4c65)OC3=O)cc2N1` (mixture of isomers) [Example 156, (RS)-6-({2-[(R)-2-oxo-3-(3-oxo-3,4-dihydro-2H-benzo[1,4]thiazin-6-yl)-oxazolidin-5-yl]-ethylamino}-methyl)-5,6-dihydro-pyrrolo[1,2,3-de]quinoxalin-3-one] as the compound, how does the MIC read?
A: ≤ 0.031 µg/mL

Q: `O=C1CSc2ccc(N3C[C@H](CCNCC4(O)Cn5c(=O)ccc6ccc(F)c4c65)OC3=O)cc2N1` (mixture of isomers) [Example 174, (RS)-9-fluoro-1-hydroxy-1-({2-[(S)-2-oxo-3-(3-oxo-3,4-dihydro-2H-benzo[1,4]thiazin-6-yl)-oxazolidin-5-yl]-ethylamino}-methyl)-1,2-dihydro-pyrrolo[3,2,1-ij]quinolin-4-one] was tested. Which MIC did it give?
A: ≤ 0.031 µg/mL

Q: With `O=C1CSc2ccc(N3C[C@H](CNCC4Cn5c(=O)ccc6cccc4c65)OC3=O)nc2N1` (mixture of isomers) [Example 175, (RS)-1-({[(S)-2-oxo-3-(3-oxo-3,4-dihydro-2H-pyrido[3,2-b][1,4]thiazin-6-yl)-oxazolidin-5-ylmethyl]-amino}-methyl)-1,2-dihydro-pyrrolo[3,2,1-ij]quinolin-4-one] as the compound, how does the MIC read?
A: ≤ 0.031 µg/mL

Q: For `O=C1CSc2ccc(N3C[C@H](CCNCC4Cn5c(=O)ccc6cccc4c65)OC3=O)nc2N1` (mixture of isomers) [Example 176, (RS)-1-({2-[(S)-2-oxo-3-(3-oxo-3,4-dihydro-2H-pyrido[3,2-b][1,4]thiazin-6-yl)-oxazolidin-5-yl]-ethylamino}-methyl)-1,2-dihydro-pyrrolo[3,2,1-ij]quinolin-4-one], which MIC is on record?
A: ≤ 0.031 µg/mL

Q: How did the MIC turn out when `O=C1CSc2ccc(N3C[C@@H](CCCNC4Cn5c(=O)ccc6ccc(Cl)c4c65)OC3=O)nc2N1` (mixture of isomers) [Example 177, (RS)-9-chloro-1-{3-[(R)-2-oxo-3-(3-oxo-3,4-dihydro-2H-pyrido[3,2-b][1,4]thiazin-6-yl)-oxazolidin-5-yl]-propylamino}-1,2-dihydro-pyrrolo[3,2,1-ij]quinolin-4-one] was run?
A: ≤ 0.031 µg/mL

Q: How did the MIC turn out when `O=C1CSc2ccc(N3C[C@@H](CCCNC4Cn5c(=O)ccc6ccc(Cl)c4c65)OC3=O)cc2N1` (mixture of isomers) [Example 178, (RS)-9-chloro-1-{3-[(R)-2-oxo-3-(3-oxo-3,4-dihydro-2H-benzo[1,4]thiazin-6-yl)-oxazolidin-5-yl]-propylamino}-1,2-dihydro-pyrrolo[3,2,1-ij]quinolin-4-one] was run?
A: ≤ 0.031 µg/mL
